Measurements published in patent publication US4104384A, “1-(2'-Aroyl eth-1'yl) 2-(4"-acetamido piperazine-1"yl methyl) benzimidazoles and their therapeutical applications” (priority 1975, dated 1978).

Assays:
gastric secretion = experiment: Gastric antisecretory properties: gastric secretion after Shay ligature, intraduodenal; type: in vivo; settings: rat, read-out: Reduction of volume of gastric secretion; for inhibition in vivo at 1.6 mg/kg: 1.6 mg/kg/i.d.; for inhibition in vivo at 1.5 mg/kg: 1.5 mg/kg/i.d.; for inhibition in vivo at 10 mg/kg: 10 mg/kg/i.d.
Excerpt: Administered intraduodenally to a rat, the compounds of formula (I) are capable of reducing gastric secretion measured after Shay ligature.

[1] = tested on: bronchoconstriction caused by acetylcholine; experiment: Anticholinergic and antibronchoconstrictive: bronchoconstriction by intravenous acetylcholine, Konzett's method; type: in vivo; settings: Cavia porcellus, guinea-pig, read-out: Percentage inhibition of the bronchoconstriction
Excerpt: Injected intravenously or intraduodenally, the compounds of formula (I) are capable of opposing bronchoconstriction caused in a guinea-pig by intravenous injection of acetylcholine and evaluated by Konzett's method.

stress ulcers = experiment: Anti-ulcerous properties: ulcerations in rat under stress for 7 hours, oral; type: in vivo; settings: for inhibition in vivo at 7.7 mg/kg: 7.7 mg/kg/p.o.; for inhibition in vivo at 7.4 mg/kg: 7.4 mg/kg/p.o.; for inhibition in vivo at 20 mg/kg: 20 mg/kg/p.o.
Shay's ulcer = experiment: Anti-ulcerous properties: ulceration caused by ligature of the pylorus (Shay's ulcers), intraduodenal; type: in vivo; settings: rat, read-out: Percentage reduction of Shay's ulcer; for inhibition in vivo at 10 mg/kg: 10 mg/kg/i.d.; for inhibition in vivo at 15.5 mg/kg: 15.5 mg/kg/i.d.; for inhibition in vivo at 14.8 mg/kg: 14.8 mg/kg/i.d.; for inhibition in vivo at 7.3 mg/kg: 7.3 mg/kg/i.d.
Excerpt: Furthermore, the compounds of formula (I) administered intraduodenally reduce the ulceration area caused by ligature of the pylorus of a rat (Shay's ulcers).

sub-plantar oedema = experiment: Anti-inflammatory: sub-plantar oedema caused by carragenine; type: in vivo; settings: po, rat, read-out: Percentage reduction of sub-plantar oedema; for inhibition in vivo at 50 mg/kg: 50 mg/kg/p.o.
jejunal ansa of a rabbit = experiment: Spasmolytic in vivo: contractions of the jejunal ansa caused by electric stimulation
Excerpt: The compounds of formula (I), administered intraduodenally are capable of reducing the contractions of the jejunal ansa of a rabbit, caused by electric stimulation.

[2] = Acute toxicity, lethal dose 50; settings: mouse, in vivo, po, read-out: Lethal dose 50 (mouse) / DL 50 (mouse) (converted)
painful stretchings = experiment: Analgesic: painful stretchings following intraperitoneal injection of acetic acid; type: in vivo; settings: po, mouse, read-out: Percentage diminution painful stretchings; for inhibition in vivo at 40 mg/kg: 40 mg/kg/p.o.; for inhibition in vivo at 50 mg/kg: 50 mg/kg/p.o.
Excerpt: The compounds of formula (I), administered orally to a mouse, are capable of reducing the number of painful stretchings following intraperitioneal injection of acetic acid.

arterial pressure = experiment: Anti-hypertensive: arterial pressure in genetically hyperstressed vigil rats (S.H.R.); type: in vivo, rat; settings: 150 mg/kg/p.o., 4 hours
Experimental: The compounds of formula (I) are capable, 4 hours after their oral injection, of bringing the arterial pressure down to normal in genetically hyperstressed vigil rats (S.H.R.).

[3] = po, read-out: Percentage reduction of stress ulcers

SMILES: O=C(CCn1c(CN2CCN(CC(=O)N3CCCC3)CC2)nc2ccccc21)c1ccccc1 [73 0458, 1-(2'-benzoyleth-1' yl) 2-(4"-pyrrolidinocarbonylmethylpiperazine-1" ylmethyl) benzimidazole]
- inhibition in vivo at 2 mg/kg (gastric secretion; Rat2, intraduodenal, 2 mg/kg/i.d.): 19%
- inhibition in vivo at 100 mg/kg ([1]; intraduodenal, i.d., 100 mg/kg): 67%
- inhibition in vivo at 5 mg/kg (stress ulcers; po, 5 mg/kg/p.o., read-out: Percentage reduction of stress ulcers): 77%
- inhibition in vivo at 10 mg/kg (Shay's ulcer): 90%

SMILES: CCNC(=O)CN1CCN(Cc2nc3ccccc3n2CCC(=O)c2ccccc2)CC1 [74 0144]
- inhibition in vivo at 1.6 mg/kg (gastric secretion; intraduodenal): 85%
- inhibition in vivo at 30 mg/kg (sub-plantar oedema; 30 mg/kg/p.o.): 35%
- Diminution of contractions of the jejunum for more than an hour (jejunal ansa of a rabbit; 15.5 mg/kg/i.d.): 43%
- LD50 [2]: 310 mg/kg
- inhibition in vivo at 4 mg/kg ([1]; iv, i.v.): 100%
- inhibition in vivo at 7.7 mg/kg (stress ulcers; [3]): 99%
- inhibition in vivo at 15.5 mg/kg (Shay's ulcer): 98%
- inhibition in vivo at 40 mg/kg (painful stretchings): 92%

SMILES: CNC(=O)CN1CCN(Cc2nc3ccccc3n2CCC(=O)c2ccccc2)CC1 [74 0145]
- inhibition in vivo at 1.6 mg/kg (gastric secretion; intraduodenal): 88%
- inhibition in vivo at 10 mg/kg (sub-plantar oedema; 10 mg/kg/p.o.): 40%
- LD50 [2]: 180 mg/kg
- inhibition in vivo at 0.5 mg/kg ([1]; iv, i.v., 0.5 mg/kg): 75%
- inhibition in vivo at 7.7 mg/kg (stress ulcers; [3]): 100%
- inhibition in vivo at 15.5 mg/kg (Shay's ulcer): 100%
- inhibition in vivo at 10 mg/kg (painful stretchings; 10 mg/kg/p.o.): 70%

SMILES: CCCNC(=O)CN1CCN(Cc2nc3ccccc3n2CCC(=O)c2ccccc2)CC1 [74 0159]
- inhibition in vivo at 1.5 mg/kg (gastric secretion; intraduodenal): 77%
- inhibition in vivo at 50 mg/kg (sub-plantar oedema): 57%
- LD50 [2]: 1250 mg/kg
- inhibition in vivo at 5 mg/kg ([1]; iv, i.v.): 100%
- inhibition in vivo at 7.5 mg/kg (stress ulcers; po, 7.5 mg/kg/p.o., read-out: Percentage reduction of stress ulcers): 100%
- inhibition in vivo at 7.6 mg/kg (stress ulcers; po, 7.6 mg/kg/p.o., read-out: Percentage reduction of stress ulcers): 100%
- inhibition in vivo at 15.1 mg/kg (Shay's ulcer; 15.1 mg/kg/i.d.): 100%
- inhibition in vivo at 50 mg/kg (painful stretchings): 40%

SMILES: O=C(CCn1c(CN2CCN(CC(=O)N3CCOCC3)CC2)nc2ccccc21)c1ccccc1 [74 0160]
- inhibition in vivo at 1.5 mg/kg (gastric secretion; intraduodenal): 45%
- inhibition in vivo at 50 mg/kg (sub-plantar oedema): 50%
- LD50 [2]: 1700 mg/kg
- inhibition in vivo at 6 mg/kg (stress ulcers; po, 6 mg/kg/p.o., read-out: Percentage reduction of stress ulcers): 76%
- inhibition in vivo at 15 mg/kg (Shay's ulcer; 15 mg/kg/i.d.): 99%

SMILES: CN(C)C(=O)CN1CCN(Cc2nc3ccccc3n2CCC(=O)c2ccccc2)CC1 [74 0180]
- inhibition in vivo at 1.5 mg/kg (gastric secretion; intraduodenal): 86%
- inhibition in vivo at 50 mg/kg (sub-plantar oedema): 47%
- Diminution of contractions of the jejunum for more than an hour (jejunal ansa of a rabbit; 15.4 mg/kg/i.d.): 50%
- LD50 [2]: 716 mg/kg
- inhibition in vivo at 5 mg/kg ([1]; iv, i.v.): 100%
- inhibition in vivo at 7.7 mg/kg (stress ulcers; [3]): 100%
- inhibition in vivo at 7.7 mg/kg (Shay's ulcer; 7.7 mg/kg/i.d.): 94%
- inhibition in vivo at 50 mg/kg (painful stretchings): 53%

SMILES: CCN(CC)C(=O)CN1CCN(Cc2nc3ccccc3n2CCC(=O)c2ccccc2)CC1 [74 0184]
- inhibition in vivo at 1.5 mg/kg (gastric secretion; intraduodenal): 77%
- inhibition in vivo at 50 mg/kg (sub-plantar oedema): 65%
- Diminution of contractions of the jejunum for more than an hour (jejunal ansa of a rabbit; 14.9 mg/kg/i.d.): 39%
- LD50 [2]: 1300 mg/kg
- inhibition in vivo at 4 mg/kg ([1]; iv, i.v.): 100%
- inhibition in vivo at 7.4 mg/kg (stress ulcers; [3]): 100%
- inhibition in vivo at 7.4 mg/kg (Shay's ulcer; 7.4 mg/kg/i.d.): 100%
- inhibition in vivo at 50 mg/kg (painful stretchings): 63%

SMILES: CCCCNC(=O)CN1CCN(Cc2nc3ccccc3n2CCC(=O)c2ccccc2)CC1 [74 0186]
- inhibition in vivo at 1.5 mg/kg (gastric secretion; intraduodenal): 67%
- inhibition in vivo at 40 mg/kg (sub-plantar oedema; 40 mg/kg/p.o.): 48%
- LD50 [2]: 360 mg/kg
- inhibition in vivo at 2 mg/kg ([1]; iv, i.v., 2 mg/kg): 100%
- inhibition in vivo at 7.4 mg/kg (stress ulcers; [3]): 98%
- inhibition in vivo at 14.8 mg/kg (Shay's ulcer): 75%
- inhibition in vivo at 40 mg/kg (painful stretchings): 77%

SMILES: CC(C)CNC(=O)CN1CCN(Cc2nc3ccccc3n2CCC(=O)c2ccccc2)CC1 [74 0187]
- inhibition in vivo at 1.5 mg/kg (gastric secretion; intraduodenal): 78%
- inhibition in vivo at 50 mg/kg (sub-plantar oedema): 47%
- LD50 [2]: 1600 mg/kg
- inhibition in vivo at 5 mg/kg ([1]; iv, i.v.): 100%
- inhibition in vivo at 7.4 mg/kg (stress ulcers; [3]): 100%
- inhibition in vivo at 14.8 mg/kg (Shay's ulcer): 94%
- inhibition in vivo at 50 mg/kg (painful stretchings): 42%

SMILES: O=C(CCn1c(CN2CCN(CC(=O)N3CCCCCC3)CC2)nc2ccccc21)c1ccccc1 [74 0195]
- Diminution of contractions of the jejunum of a rabbit (jejunal ansa of a rabbit; 14.2 mg/kg/i.d.): 30%
- LD50 [2]: > 2000 mg/kg
- inhibition in vivo at 25 mg/kg ([1]; intraduodenal, i.d., 25 mg/kg): 60%
- inhibition in vivo at 7.1 mg/kg (stress ulcers; po, 7.1 mg/kg/p.o., read-out: Percentage reduction of stress ulcers): 59%
- inhibition in vivo at 14.2 mg/kg (Shay's ulcer; 14.2 mg/kg/i.d.): 86%
- inhibition in vivo at 50 mg/kg (painful stretchings): 53%

SMILES: CCCN(CCC)C(=O)CN1CCN(Cc2nc3ccccc3n2CCC(=O)c2ccccc2)CC1 [74 0196]
- inhibition in vivo at 1.5 mg/kg (gastric secretion; intraduodenal): 74%
- LD50 [2]: 2100 mg/kg
- inhibition in vivo at 7.3 mg/kg (stress ulcers; po, 7.3 mg/kg/p.o., read-out: Percentage reduction of stress ulcers): 88%
- inhibition in vivo at 7.3 mg/kg (Shay's ulcer): 90%

SMILES: CC(C)N(C(=O)CN1CCN(Cc2nc3ccccc3n2CCC(=O)c2ccccc2)CC1)C(C)C [74 0453]
- LD50 [2]: 1000 mg/kg
- inhibition in vivo at 2.5 mg/kg ([1]; iv, i.v., 2.5 mg/kg): 100%
- inhibition in vivo at 7.3 mg/kg (Shay's ulcer): 82%

SMILES: CC(C)NC(=O)CN1CCN(Cc2nc3ccccc3n2CCC(=O)c2ccc([N+](=O)[O-])cc2)CC1 [74 0747]
- arterial pressure brought down to normal (arterial pressure): 4 animals out of 7
- LD50 [2]: 2200 mg/kg

SMILES: O=C(CN1CCN(Cc2nc3ccccc3n2CCC(=O)c2ccccc2)CC1)NC1CCCC1 [74 0751]
- inhibition in vivo at 4.5 mg/kg (gastric secretion; intraduodenal, 4.5 mg/kg/i.d.): 69%
- LD50 [2]: 1100 mg/kg
- ED50 (stress ulcers; oral, read-out: DE 50, stress ulcers): 11 mg/kg
- inhibition in vivo at 10 mg/kg (Shay's ulcer): 89%

SMILES: Cc1ccc(C(=O)CCn2c(CN3CCN(CC(=O)NC(C)C)CC3)nc3ccccc32)cc1 [75 0009]
- inhibition in vivo at 10 mg/kg (gastric secretion; intraduodenal): 62%
- LD50 [2]: 1800 mg/kg
- inhibition in vivo at 20 mg/kg (stress ulcers; [3]): 90%
- inhibition in vivo at 20 mg/kg (Shay's ulcer; 20 mg/kg/i.d.): 56%

SMILES: COc1cccc(C(=O)CCn2c(CN3CCN(CC(=O)NC(C)C)CC3)nc3ccccc32)c1 [75 0010]
- inhibition in vivo at 25 mg/kg (gastric secretion; intraduodenal, 25 mg/kg/i.d.): 82%
- LD50 [2]: 1200 mg/kg
- inhibition in vivo at 20 mg/kg (stress ulcers; [3]): 77%
- inhibition in vivo at 40 mg/kg (Shay's ulcer; 40 mg/kg/i.d.): 86%

SMILES: CC(C)NC(=O)CN1CCN(Cc2nc3ccccc3n2CCC(=O)c2ccc(Cl)cc2)CC1 [75 0012]
- inhibition in vivo at 10 mg/kg (gastric secretion; intraduodenal): 63%
- LD50 [2]: 1300 mg/kg
- inhibition in vivo at 20 mg/kg (stress ulcers; [3]): 64%
- inhibition in vivo at 10 mg/kg (Shay's ulcer): 73%

SMILES: NC(=O)CN1CCN(Cc2nc3ccccc3n2CCC(=O)c2ccccc2)CC1 [75 0102]
- inhibition in vivo at 10 mg/kg (gastric secretion; intraduodenal): 91%
- Diminution of contractions of the jejunum for more than an hour (jejunal ansa of a rabbit; 25 mg/kg/i.d.): 80%
- LD50 [2]: 1300 mg/kg
- inhibition in vivo at 10 mg/kg (stress ulcers; po, 10 mg/kg/p.o., read-out: Percentage reduction of stress ulcers): 100%
- inhibition in vivo at 10 mg/kg (Shay's ulcer): 74%

SMILES: C[N+]1(C)CCC(=C(c2ccccc2)c2ccccc2)CC1 [Diphemanil, diphemanil (methylsulfate), reference compound]
- inhibition in vivo at 50 mg/kg (gastric secretion; intraduodenal, 50 mg/kg/i.d.): 52%
- Diminution of contractions of the jejunum of a rabbit (jejunal ansa of a rabbit; 20 mg/kg/i.d.): 70%
- LD50 [2]: 317 mg/kg
- inhibition in vivo at 100 mg/kg (stress ulcers; po, 100 mg/kg/p.o., ratio equal to 315, read-out: Percentage reduction of stress ulcers): 91%
